Assay results taken from patent US9834551B2, “Substituted pyrrolo[2,3-b]pyrazines and substituted pyrazolo[3,4-b]pyridines as ITK and JAK kinase inhibitors” (Arrien Pharmaceuticals LLC, priority 2013, dated 2017).

What was measured:
[1] = tested on: Established Type II Collagen Arthritis; assay: Established type II collagen arthritis, PO BID, 11 day
Source text: Effects of 1H-pyrrolo[2,3-b]pyridine series of compounds Administered PO, BID in 11 Day DBA/1OlaHsd Mouse Established Type II Collagen Arthritis

[2] = target: ITK (Homo sapiens (Human), UniProt Q08881); assay: ITK kinase assay (radiometric filter assay); assay type: biochemical; details: 10 μM ATP; 10-dose IC50 mode, 3 fold serial dilution starting at 100 μM; read-out: ITK kinase inhibition
Protocol: (§1) All additions were done on ice, followed by the addition of ATP mix. Wells were uniformly mixed using an Eppendorff plate shaker and incubated at 30° C. for 20 min, and stopped by the addition of 5 μL of 3% phosphoric acid. Volume was increased to 100 μL by adding 0.8% phosphoric acid which was then transferred to PC filter mats (Millipore), pre-equilibrated with 70% ethanol and water. Plates were washed thrice with 100 μL 0.8% phosphoric acid and dried for an hour at 60° C. 100 μL scintillation fluid was added into each well and reading taken in Perkin Elmer TOPCOUNT beta counter.
(§2) The reactions were carried out at 10 μM ATP for ITK, JAK3 and other TEC and Janus family of kinase.

[3] = target: JAK3 (Homo sapiens (Human), UniProt P52333); assay: JAK3 kinase assay (radiometric filter assay); assay type: biochemical; details: 10 μM ATP; 10-dose IC50 mode, 3 fold serial dilution starting at 100 μM; read-out: JAK3 kinase inhibition
Protocol: as §1, §2

ITK, sequence (Q08881 whole entry): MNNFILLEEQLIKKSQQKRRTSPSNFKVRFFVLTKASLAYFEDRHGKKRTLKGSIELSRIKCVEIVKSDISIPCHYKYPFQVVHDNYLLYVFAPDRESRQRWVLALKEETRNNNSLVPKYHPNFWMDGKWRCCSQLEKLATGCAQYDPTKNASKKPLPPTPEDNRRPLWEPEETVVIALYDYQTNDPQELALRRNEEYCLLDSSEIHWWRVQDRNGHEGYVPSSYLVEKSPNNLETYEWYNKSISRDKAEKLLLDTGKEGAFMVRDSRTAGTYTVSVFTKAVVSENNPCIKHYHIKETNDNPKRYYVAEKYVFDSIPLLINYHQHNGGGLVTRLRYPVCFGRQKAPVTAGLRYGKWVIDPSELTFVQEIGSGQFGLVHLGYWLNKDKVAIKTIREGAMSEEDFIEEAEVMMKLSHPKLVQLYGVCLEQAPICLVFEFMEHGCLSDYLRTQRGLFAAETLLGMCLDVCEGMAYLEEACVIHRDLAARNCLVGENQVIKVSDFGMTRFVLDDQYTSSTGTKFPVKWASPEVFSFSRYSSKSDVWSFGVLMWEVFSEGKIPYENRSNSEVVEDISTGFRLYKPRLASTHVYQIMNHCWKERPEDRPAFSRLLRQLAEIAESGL
JAK3, sequence (P52333 whole entry): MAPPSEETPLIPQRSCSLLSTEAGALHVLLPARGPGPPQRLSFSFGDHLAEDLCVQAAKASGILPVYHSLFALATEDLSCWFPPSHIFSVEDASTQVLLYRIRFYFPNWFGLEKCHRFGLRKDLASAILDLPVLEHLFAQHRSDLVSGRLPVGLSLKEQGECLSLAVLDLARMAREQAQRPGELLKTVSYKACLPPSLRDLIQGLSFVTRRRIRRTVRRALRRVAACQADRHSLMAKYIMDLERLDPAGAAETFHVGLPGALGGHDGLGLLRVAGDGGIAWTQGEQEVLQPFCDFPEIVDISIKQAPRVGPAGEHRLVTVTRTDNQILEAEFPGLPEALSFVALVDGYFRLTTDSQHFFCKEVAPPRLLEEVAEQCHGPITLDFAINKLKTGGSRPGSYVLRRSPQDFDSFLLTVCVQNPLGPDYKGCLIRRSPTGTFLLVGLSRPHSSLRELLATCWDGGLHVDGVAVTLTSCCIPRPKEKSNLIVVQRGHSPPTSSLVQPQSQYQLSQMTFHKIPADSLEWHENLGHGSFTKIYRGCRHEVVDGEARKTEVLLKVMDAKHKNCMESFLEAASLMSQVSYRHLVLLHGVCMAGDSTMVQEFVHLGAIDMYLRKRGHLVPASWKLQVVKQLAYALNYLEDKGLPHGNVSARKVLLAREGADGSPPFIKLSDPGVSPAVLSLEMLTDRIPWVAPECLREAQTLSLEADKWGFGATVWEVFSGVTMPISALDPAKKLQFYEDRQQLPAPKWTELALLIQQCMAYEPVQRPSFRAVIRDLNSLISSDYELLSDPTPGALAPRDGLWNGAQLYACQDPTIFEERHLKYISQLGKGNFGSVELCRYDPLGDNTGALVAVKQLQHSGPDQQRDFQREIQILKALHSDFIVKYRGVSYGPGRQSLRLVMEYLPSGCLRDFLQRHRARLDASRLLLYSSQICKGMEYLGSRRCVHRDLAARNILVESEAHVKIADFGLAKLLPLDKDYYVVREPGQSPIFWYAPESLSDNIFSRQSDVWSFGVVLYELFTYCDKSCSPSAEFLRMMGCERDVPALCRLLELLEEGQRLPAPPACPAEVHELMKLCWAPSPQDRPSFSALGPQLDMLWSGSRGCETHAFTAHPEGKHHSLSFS

| IC50 [2] [nM] | IC50 [3] [nM] | SMILES | body weight ([1]; 60 mg/Kg) | effectiveness, suppression of the inflammatory response ([1]; collagen-induced arthritis in mice, PO BID) [%] |
| --- | --- | --- | --- | --- |
|  |  | C[C@@H]1CCN(C(=O)CC#N)C[C@@H]1N(C)c1ncnc2[nH]ccc12 [CP-690550/Tofacitinib, Tofacitinib] | body weight change from day 1 | 97 |
| < 100 | < 100 | CCC#CC(=O)Nc1cc(-c2cnc3[nH]cc(C)c3c2)ccc1F [Example 31, N-(2-fluoro-5-(3-methyl-1H-pyrrolo[2,3-b]pyridin-5-yl)phenyl)pent-2-ynamide] |  |  |
| > 100 | > 100 | C=CC(=O)Nc1cccc(-c2cnc3[nH]cc(NS(=O)(=O)CCC)c3c2)c1 [Example 97, N-(3-(3-(propylsulfonamido)-1H-pyrrolo[2,3-b]pyridin-5-yl)phenyl)acrylamide] |  |  |
